Measured values published in ChEMBL document CHEMBL2073785, “The role of the efflux transporter P-glycoprotein in brain penetration of prednisolone” (J Endocrinol, 2002).

Molecular target: ATP-dependent translocase ABCB1 (Homo sapiens, UniProt P08183)
Assay: TP_TRANSPORTER: transepithelial transport (basal to apical) in MDR1-expressing LLC-PK1 cells
Format: functional, cell-based
Settings: pig

Sequence of ATP-dependent translocase ABCB1 (P08183 whole entry): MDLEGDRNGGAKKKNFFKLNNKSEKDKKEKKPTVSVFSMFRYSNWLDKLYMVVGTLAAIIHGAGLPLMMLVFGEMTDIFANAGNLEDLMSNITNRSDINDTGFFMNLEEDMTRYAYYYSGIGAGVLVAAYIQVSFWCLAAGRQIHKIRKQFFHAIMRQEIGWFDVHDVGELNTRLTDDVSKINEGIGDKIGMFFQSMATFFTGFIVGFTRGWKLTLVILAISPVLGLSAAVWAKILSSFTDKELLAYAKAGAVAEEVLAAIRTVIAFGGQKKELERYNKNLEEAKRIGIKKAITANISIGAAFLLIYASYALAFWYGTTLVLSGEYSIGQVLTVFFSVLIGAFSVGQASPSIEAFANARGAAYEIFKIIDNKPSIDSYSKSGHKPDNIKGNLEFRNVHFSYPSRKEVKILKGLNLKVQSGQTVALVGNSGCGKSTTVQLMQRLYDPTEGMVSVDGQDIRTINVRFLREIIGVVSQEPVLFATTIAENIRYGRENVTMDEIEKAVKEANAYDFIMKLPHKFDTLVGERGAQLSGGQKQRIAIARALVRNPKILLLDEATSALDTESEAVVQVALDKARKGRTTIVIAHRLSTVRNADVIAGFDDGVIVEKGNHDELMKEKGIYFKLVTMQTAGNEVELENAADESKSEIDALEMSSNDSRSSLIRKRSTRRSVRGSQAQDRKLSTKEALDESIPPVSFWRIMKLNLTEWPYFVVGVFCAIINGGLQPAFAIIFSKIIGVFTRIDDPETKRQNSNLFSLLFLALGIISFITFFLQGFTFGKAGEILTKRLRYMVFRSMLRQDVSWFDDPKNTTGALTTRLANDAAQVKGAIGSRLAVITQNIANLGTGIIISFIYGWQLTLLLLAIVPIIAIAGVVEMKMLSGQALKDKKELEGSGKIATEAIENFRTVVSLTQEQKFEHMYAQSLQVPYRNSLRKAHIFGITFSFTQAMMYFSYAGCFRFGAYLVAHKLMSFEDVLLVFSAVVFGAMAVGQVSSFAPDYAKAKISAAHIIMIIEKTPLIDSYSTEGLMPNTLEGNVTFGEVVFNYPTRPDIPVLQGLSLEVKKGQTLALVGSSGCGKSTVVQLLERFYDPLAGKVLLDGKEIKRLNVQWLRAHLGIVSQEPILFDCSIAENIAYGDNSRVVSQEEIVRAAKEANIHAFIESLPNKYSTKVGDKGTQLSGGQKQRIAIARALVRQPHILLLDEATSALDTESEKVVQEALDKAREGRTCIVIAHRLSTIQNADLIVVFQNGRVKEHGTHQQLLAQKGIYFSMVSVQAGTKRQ

Activity: is not a substrate [-]
Compound: C[C@]12CCC(=O)C=C1CC[C@@H]1[C@@H]2CC[C@@]2(C)[C@H]1CC[C@]2(O)C(=O)CO [CORTODOXONE]
